Source: patent US20200288721A1, “PESTICIDAL COMPOSITION COMPRISING AN OXIME CARBAMATE AND USE THEREOF” (priority 2017, published 2020)

Assay: Stability Test: storage of SL formulations in sealed bottles at 54° C. for 14 days
Type: physicochemical
Conditions: acid at 1% (Table 1) or 1-3% (Table 3) in 24% oxamyl SL
Description: (§1) Samples of the compositions summarised in Table 1 above were packaged in commercially available 500 ml fluorinated plastic bottles and the bottles sealed. The bottles were stored at 54° C. for 14 days. Thereafter, the bottles were cooled to room temperature and their appearance assessed. The concentration of the active ingredient, oxamyl, in each bottle was measured.
as §1, with “Table 3” for “Table 1”

For CC(=O)O [Acetic acid], the “stabilisation / chemical degradation of the oxamyl active ingredient (in words)” value (from here on “stabilisation / chemical degradation”) was “significantly reduced the chemical degradation”.
In the case of OB(O)O [boric acid], the “stabilisation / chemical degradation” value is reported as “not effective in stabilising the oxamyl active ingredient”.
With O=C(O)CC(O)(CC(=O)O)C(=O)O [citric acid] the “stabilisation / chemical degradation” value was “significantly reduced the chemical degradation”.
For Cl [hydrochloric acid], the “stabilisation / chemical degradation” value was “significantly reduced the chemical degradation”.
In the case of O=P(O)(O)O [phosphoric acid], the “stabilisation / chemical degradation” value is reported as “significantly reduced the chemical degradation”.
